Data as given in the supplement of paper PMC6045584.
± gives the standard deviation of the averaged measurements.

Columns and labels:
[1] = compound: O=C(CCCCCCC(=O)Nc1ccccc1)NO [VORINOSTAT]; assay: surviving fraction relative to DMSO-only wells; higher = less growth inhibition; conditions: exposure time: 5 days
How it was run: (§1)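 Tumour cell lines were grown to log phase and seeded at 250–500 cells per well in 384-well plates. They were exposed continuously to inhibitors at 0.5, 1, 5, 10, 50, 100, 500 and 1000 nM for five days, beginning 24 hours after seeding. Surviving fraction is CellTiter-Glo luminescence normalised to the median of DMSO-only wells.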

[2] = compound: COc1ccc(-c2cc3c(C)nc(N)nc3n([C@H]3CC[C@H](OCCO)CC3)c2=O)cn1; assay: as above; conditions: exposure time: 5 days
How it was run: as §1

Test System	surviving fraction ([1]; 0.5 nM)	surviving fraction ([1]; 1 nM)	surviving fraction ([1]; 5 nM)	surviving fraction ([1]; 10 nM)	surviving fraction ([1]; 50 nM)	surviving fraction ([1]; 100 nM)	surviving fraction ([1]; 500 nM)	surviving fraction ([1]; 1000 nM)	surviving fraction ([2]; 0.5 nM)	surviving fraction ([2]; 1 nM)	surviving fraction ([2]; 5 nM)	surviving fraction ([2]; 10 nM)	surviving fraction ([2]; 50 nM)	surviving fraction ([2]; 100 nM)	surviving fraction ([2]; 500 nM)	surviving fraction ([2]; 1000 nM)
RDES SOFT TISSUE	1.21 ± 0.099	1.19 ± 0.13	1.2 ± 0.029	1.1 ± 0.02	1.05 ± 0.073	1.11 ± 0.12	0.831 ± 0.13	1.12 ± 0.39	1.23 ± 0.074	1.24 ± 0.12	1.13 ± 0.1	1.22 ± 0.097	1.34 ± 0.055	1.03 ± 0.038	0.301 ± 0.015	0.166 ± 0.021
OSHN BONE	1.05 ± 0.026	1.04 ± 0.019	1.05 ± 0.022	1.028 ± 0.0032	1.08 ± 0.042	1.08 ± 0.032	1.1 ± 0.022	0.903 ± 0.022	1.03 ± 0.024	1.03 ± 0.035	1.02 ± 0.029	1.01 ± 0.03	1.1 ± 0.0058	1.03 ± 0.034	0.447 ± 0.016	0.267 ± 0.0045
CAL120 BREAST	0.944 ± 0.017	0.896 ± 0.025	0.922 ± 0.013	0.883 ± 0.036	0.896 ± 0.025	0.78 ± 0.009	0.4962 ± 0.0023	0.248 ± 0.054	0.942 ± 0.024	0.876 ± 0.034	0.9035 ± 0.0069	0.867 ± 0.025	0.674 ± 0.035	0.441 ± 0.019	0.113 ± 0.025	0.0817 ± 0.0065
C33A CERVIX	0.86 ± 0.078	0.952 ± 0.064	1.04 ± 0.031	1.05 ± 0.098	1.04 ± 0.15	1.05 ± 0.096	0.805 ± 0.014	0.615 ± 0.048	0.778 ± 0.031	0.943 ± 0.09	0.789 ± 0.075	0.923 ± 0.073	0.614 ± 0.043	0.482 ± 0.012	0.156 ± 0.024	0.101 ± 0.018
HSSYII SYNOVIAL	0.913 ± 0.023	0.87 ± 0.025	0.927 ± 0.044	0.873 ± 0.016	1.06 ± 0.25	0.858 ± 0.066	0.436 ± 0.012	0.201 ± 0.011	0.926 ± 0.034	0.941 ± 0.07	0.821 ± 0.045	0.789 ± 0.036	0.502 ± 0.006	0.329 ± 0.014	0.12 ± 0.0097	0.093 ± 0.0052
HUO3N1 BONE	1.03 ± 0.016	0.975 ± 0.051	0.988 ± 0.027	0.964 ± 0.032	1.012 ± 0.0098	1.06 ± 0.081	0.987 ± 0.032	0.559 ± 0.011	0.986 ± 0.036	0.981 ± 0.039	0.924 ± 0.061	0.855 ± 0.028	0.614 ± 0.013	0.494 ± 0.026	0.242 ± 0.012	0.188 ± 0.003
ZR751 BREAST	1.22 ± 0.18	1.23 ± 0.18	1.16 ± 0.12	1.08 ± 0.2	1.37 ± 0.13	1.4 ± 0.19	1.23 ± 0.16	1.04 ± 0.17	1.13 ± 0.17	1.04 ± 0.15	0.783 ± 0.13	0.708 ± 0.11	0.328 ± 0.039	0.182 ± 0.038	0.091 ± 0.013	0.0693 ± 0.012
BT20 BREAST	1.05 ± 0.17	1.09 ± 0.21	1.06 ± 0.17	1.05 ± 0.2	0.941 ± 0.21	0.943 ± 0.22	0.872 ± 0.19	0.491 ± 0.12	1.13 ± 0.1	1.11 ± 0.097	1.12 ± 0.019	1.09 ± 0.063	1 ± 0.048	0.72 ± 0.037	0.216 ± 0.004	0.141 ± 0.021
JIMT1 BREAST	0.924 ± 0.0097	0.995 ± 0.017	1.01 ± 0.037	0.986 ± 0.013	1.07 ± 0.027	1.006 ± 0.01	0.686 ± 0.01	0.448 ± 0.037	0.983 ± 0.03	0.961 ± 0.023	0.968 ± 0.011	0.937 ± 0.024	0.857 ± 0.021	0.606 ± 0.022	0.19 ± 0.0061	0.114 ± 0.013
PCI30 HEADNECK	0.958 ± 0.064	0.982 ± 0.079	0.933 ± 0.087	1.01 ± 0.039	1.07 ± 0.053	0.962 ± 0.066	0.88 ± 0.064	0.735 ± 0.059	0.935 ± 0.034	0.947 ± 0.079	0.902 ± 0.023	0.963 ± 0.1	0.716 ± 0.028	0.495 ± 0.033	0.181 ± 0.004	0.151 ± 0.0076
SAOS2 BONE	1.09 ± 0.027	1.07 ± 0.047	1.09 ± 0.07	0.997 ± 0.088	1.24 ± 0.021	1.06 ± 0.048	0.91 ± 0.053	0.73 ± 0.017	1.11 ± 0.018	1.07 ± 0.016	0.98 ± 0.083	0.931 ± 0.04	0.636 ± 0.018	0.52 ± 0.014	0.174 ± 0.0087	0.0977 ± 0.0011
MDAMB157 BREAST	0.889 ± 0.089	0.896 ± 0.034	0.939 ± 0.04	0.973 ± 0.069	1.01 ± 0.065	0.951 ± 0.068	0.825 ± 0.024	0.321 ± 0.04	0.899 ± 0.061	0.963 ± 0.12	0.802 ± 0.051	0.812 ± 0.042	0.705 ± 0.079	0.618 ± 0.088	0.432 ± 0.042	0.332 ± 0.02
U2OS BONE	0.934 ± 0.013	1.03 ± 0.015	0.995 ± 0.026	1.01 ± 0.02	1.01 ± 0.016	1.04 ± 0.04	0.909 ± 0.047	0.751 ± 0.051	0.98 ± 0.036	1.02 ± 0.019	0.9927 ± 0.0096	0.92 ± 0.05	0.794 ± 0.044	0.693 ± 0.029	0.277 ± 0.0042	0.202 ± 0.0051
22RV1 PROSTATE	0.946 ± 0.09	1.02 ± 0.026	0.987 ± 0.054	0.994 ± 0.034	1.09 ± 0.046	1.03 ± 0.058	1.03 ± 0.051	0.726 ± 0.071	1.03 ± 0.041	0.999 ± 0.072	0.876 ± 0.085	0.796 ± 0.021	0.516 ± 0.065	0.312 ± 0.043	0.106 ± 0.019	0.0857 ± 0.0063
HCC1954 BREAST	0.802 ± 0.19	0.823 ± 0.26	1.07 ± 0.36	1.18 ± 0.13	1.345 ± 0.0064	1.37 ± 0.21	0.839 ± 0.022	0.42875 ± 0.00035	0.993 ± 0.024	0.945 ± 0.056	1.153 ± 0.0064	1.03 ± 0.044	0.487 ± 0.08	0.322 ± 0.047	0.0592 ± 0.0095	0.0478 ± 0.0011
HCC202 BREAST	1.19 ± 0.26	1.12 ± 0.13	1.31 ± 0.11	1.12 ± 0.12	0.808 ± 0.14	0.777 ± 0.34	0.476 ± 0.12	0.295 ± 0.049	1.18 ± 0.25	1.37 ± 0.17	0.947 ± 0.27	0.94 ± 0.21	0.635 ± 0.18	0.295 ± 0.047	0.0793 ± 0.018	0.048 ± 0.013
SCC90 HEADNECK	1.13 ± 0.3	0.999 ± 0.1	1.13 ± 0.19	1.03 ± 0.1	1 ± 0.046	0.89 ± 0.089	0.689 ± 0.012	0.547 ± 0.0096	0.913 ± 0.076	0.916 ± 0.037	0.892 ± 0.034	0.904 ± 0.15	0.674 ± 0.074	0.555 ± 0.077	0.194 ± 0.025	0.222 ± 0.054
NOS1 BONE	1.01 ± 0.05	0.982 ± 0.17	1.04 ± 0.021	1.03 ± 0.056	1.14 ± 0.15	1.07 ± 0.091	0.713 ± 0.089	0.284 ± 0.0091	1.13 ± 0.032	0.989 ± 0.13	1.2 ± 0.16	0.96 ± 0.1	0.6 ± 0.048	0.448 ± 0.029	0.158 ± 0.0032	0.095 ± 0.015
OS25HAL BONE	0.987 ± 0.014	0.962 ± 0.015	0.991 ± 0.015	0.943 ± 0.033	1.046 ± 0.0047	1.03 ± 0.031	0.91 ± 0.011	0.498 ± 0.018	0.95 ± 0.012	0.9753 ± 0.0029	0.9657 ± 0.0091	0.86 ± 0.041	0.603 ± 0.042	0.35 ± 0.066	0.13 ± 0.0092	0.0623 ± 0.0049
SCC47 HEADNECK	1.03 ± 0.04	1.03 ± 0.077	1.12 ± 0.034	1.02 ± 0.016	1.05 ± 0.023	1.1 ± 0.044	1.02 ± 0.083	0.897 ± 0.028	0.983 ± 0.021	0.992 ± 0.084	0.992 ± 0.027	1.01 ± 0.015	0.903 ± 0.032	0.886 ± 0.019	0.371 ± 0.013	0.225 ± 0.0095
